# Measured values taken from US10100285B2, “Ex vivo proliferation of epithelial cells” (PROPAGENIX INC., priority 2015, dated 2018).
# Experiments:
# [1] = tested on: human bronchial epithelial cells (HBEC) and human foreskin keratinocytes (HFK); experiment: Dome-like structure formation at high CaCl2; assay type: cell-based; conditions: CaCl2 raised to 1.5 mM in KSFM+A+Y, 7 to 10 days
# Procedure: Dome-like structures formed in keratinocyte and bronchial epithelial cell cultures in the presence of high concentration of CaCl2. Specifically, late passage human bronchial epithelial cells (HBEC) and late passage human foreskin keratinocytes (HFK) cultured in KSFM supplemented with 1 μM A 83-01 and 5 μM Y-27632 (KSFM+A+Y) at low CaCl2 (90 μM) were allowed to reach confluence in 6-well plates. The cells remained in the KSFM+A+Y conditions and the CaCl2 concentration was raised to 1.5 mM to induce differentiation of the epithelial cells.
# [2] = tested on: human bronchial epithelial cells; experiment: Effect of culture media calcium content on cell behavior; assay type: cell-based; conditions: 1 mM CaCl2 in KSFM plus A83-01 and Y-27632
# Procedure: Effects of culture media calcium content on cell behavior were assessed for epithelial cells cultured in KSFM plus A83-01 and Y-27632. Human bronchial epithelial cells were grown KSFM (with 90 μM CaCl2) plus A83-01 and Y-27632. These cells dispersed throughout the culture vessel (FIG. 28, left panel), and few cells formed intercellular connections, even when they were in close proximity to each other. […] Cells in the center of the patches tended to pile up, and boundaries between individual cells generally were not discernable. In certain instances, abnormal elongations formed between clusters.
# [3] = tested on: bronchial epithelial cells; experiment: Trans-epithelium electric resistance (TEER) of bronchial epithelial cells on […]; assay type: cell-based, human
# Procedure: In a further investigation, effects of culture media calcium content on intercellular junctions was assessed for bronchial epithelial cells cultured in KSFM plus A83-01 and Y-27632. Intercellular junctions were assessed according to paracellular flow of ions as measured by trans-epithelium electric resistance (TEER). […] Bronchial epithelial cells were plated on porous membrane support ([…], Corning, 354474) and maintained for 7 days when the membrane was covered with culture medium (submerged phase, grayed box in FIG. 29, top panel). On day 8, the medium was removed from the apical side of the membrane, and the cells were exposed to air to induce further differentiation. Further, as shown in FIG. 29 (bottom panel), bronchial epithelial cells established increasing transmembrane electric resistance (TEER) over time in the presence of high concentration (1 mM) of CaCl2 in KSFM plus A 83-01 and Y-27632. Bronchial epithelial cells were plated on a porous membrane support ([…], Corning, 354474) and maintained for 24 days, with the membrane covered by culture medium for the duration of the culture. Trans-epithelium electric resistance (TEER) remained at a high level throughout the culture period.
# [4] = tested on: human foreskin keratinocytes (HFK); experiment: TEER in air-liquid-interface differentiation of keratinocytes; assay type: cell-based; conditions: 1.5 mM CaCl2 in KSFM+A+Y, 14 days
# Procedure: Keratinocytes established increasing transmembrane electric resistance (TEER) over time in air-liquid-interface differentiation, in the presence of high concentration (1.5 mM) of CaCl2 in KSFM plus A 83-01 and Y-27632. Specifically, human foreskin keratinocytes (HFK) previously cultured in KSFM supplemented with 1 μM A83-01 and 5 μM Y-27632 (KSFM+A+Y) at low CaCl2 (90 μM) were plated on a porous membrane support ([…], Corning, 354474) and maintained for 14 days. The cells were covered by culture medium (KSFM+A+Y and 1.5 mM of CaCl2) for the first day (submerged phase, grayed box in FIG. 34) and exposed to air for the remaining days.
# [5] = tested on: human foreskin keratinocytes (HFK); experiment: Epidermal-like structure in air-liquid-interface differentiation (H&E); assay type: cell-based; conditions: 1.5 mM CaCl2 in KSFM+A+Y, day 14
# Procedure: Keratinocytes formed an epidermal-like structure over time in air-liquid-interface differentiation, in the presence of high concentration (1.5 mM) of CaCl2 in KSFM plus A 83-01 and Y-27632. Specifically, human foreskin keratinocytes (HFK) previously cultured in KSFM supplemented with 1 μM A83-01 and 5 μM Y-27632 (KSFM+A+Y) at low CaCl2 (90 μM) were plated on a porous membrane support ([…], Corning, 354474) and maintained for 14 days. The cells were covered by culture medium (KSFM+A+Y and 1.5 mM of CaCl2) for the first day and exposed to air for the remaining days. At the end of experiment (i.e., on day 14), the culture was fixed in 4% paraformaldehyde, embedded in paraffin and sectioned for haematoxylin and eosin staining (H&E) to reveal its structure.
# [6] = tested on: human foreskin keratinocytes (HFK); experiment: Tight junction formation, ZO-1 immunofluorescence; assay type: cell-based; conditions: CaCl2 raised to 1.5 mM in KSFM+A+Y
# Procedure: Specifically, late passage human foreskin keratinocytes (HFK) cultured in KSFM supplemented with 1 μM A83-01 and 5 μM Y-27632 (KSFM+A+Y) at low CaCl2 (90 μM) were allowed to reach confluence. The cells remained in the KSFM+A+Y conditions and the CaCl2 concentration was raised to 1.5 mM to induce differentiation.
# [7] = tested on: CD4+ and CD8+ T cells (human PBMCs); experiment: T cell proliferation, Cell Trace CFSE stained PBMCs with PHA co-incubated with hAECs; assay type: cell-based; conditions: 48 hour preincubation of hAECs with interferon γ 100 ng/ml
# Description: Human Peripheral Blood Mononuclear Cells (PBMCs) were isolated and stained with Cell Trace CFSE (Thermo Fisher Scientific). Cell Trace CFSE is a cell permeable amine reactive fluorescent dye that non-specifically labels intracellular proteins. Through subsequent cell divisions each daughter cell receives approximately half of the label allowing for determination of the intensity of fluorescence by flow cytometry and correlation to the number of cell divisions. Cell Trace CFSE stained PBMCs were added to ˜80% confluent monolayers of hAECs from Donor 1 (P4) and Donor 2 (P4) expanded in KSFM A+Y. Upon addition of the stained PMBCs the media was changed to RPMI media with 10% FBS and 5 μg/ml phytohaemagglutinin (PHA). PHA is a potent mitotic agent used to activate and stimulate proliferation of lymphocytes. The expanded hAECs were used directly from growth conditions or after a 48 hour preincubation with Interferon γ (100 ng/ml; Thermo Fisher Scientific). This treatment can increase the immunosuppressive effect of hAECs. […] The degree of inhibition of proliferation was calculated by determining the number of cells that proliferated in the presence of hAECs relative to the number of cells that proliferated when exposed to PHA treatment alone (FIG. 45D). […]
# [8] = tested on: hAECs; experiment: Effect of interferon γ on immunomodulatory gene expression in hAECs (qRT-PCR); assay type: cell-based, human; conditions: 100 ng/mL, 48 hours
# Procedure: In certain instances, treatment of hAECs with interferon γ (INFγ) leads to an upregulation of genes involved in immune suppression. However, cultured hAECs typically lose their functional phenotype (see e.g., cells tested at passage 5 in Pratama et al. 2011 PLoS ONE 6(11): e26136). In this example, hAECs isolated from two different donors (Donor 1 and Donor 2), were tested for their response to INFγ both in KSFM A+Y and after removal from growth conditions and placement into standard hAEC media (DMEM:F12 10% FBS). Cells from both donors grown in KSFM A+Y at passage 4 at ˜80% confluence were either kept in KSFM A+Y, changed to KSFM A+Y+100 ng/mL INFγ, or changed to DMEM:F12+/−100 ng/mL INFγ. The cells were left for an additional 48 hours in each condition. qRT-PCR was used to examine expression levels of HLA-G, Indoleamine 2,3-dioxygenase (IDO), and Programmed Death Ligand 1 (PD-L1) (see FIGS. 46A-46D).
# HLA-G can have a wide variety of immunomodulatory effects on numerous immune cells. Expression of HLA-G is generally considered a prominent feature of hAECs, and often is lost during expansion in culture. […] IDO is the first and rate-limiting enzyme of tryptophan catabolism through the kynurenine pathway, thus causing depletion of tryptophan which can inhibit T cell proliferation. […] PD-L1 may play a major role in immune suppression, inhibiting the proliferation and inducing apoptosis of T cells.
molecule,measurement,setting,value
[Ca+2].[Cl-].[Cl-] [CaCl2],dome-like structure formation,[1],Many dome-like structures were formed
same,cell behavior,[2],aggregate into tight clusters
same,intercellular junctions (TEER),[3]; high concentration (1 mM) in KSFM plus A 83-01 and Y-27632,established tight intercellular junctions
same,intercellular junctions (TEER),[3]; low concentration (90 μM) in KSFM plus A 83-01 and Y-27632,failed to establish tight intercellular junctions
same,trans-epithelium electric resistance (TEER),[4],reached very high levels
same,epidermal-like structure formation,[5],differentiated into multi-layer structures
same,tight junction formation (ZO-1),[6],Tight junction formation was observed
"interferon γ: Interferon γ (100 ng/ml; Thermo Fisher Scientific) (protein, UniProt P01579 24-161, looked up) Interferon gamma: QDPYVKEAENLKKYFNAGHSDVADNGTLFLGILKNWKEESDRKIMQSQIVSFYFKLFKNFKDDQSIQKSVETIKEDMNVKFFNSNKKKRDDFEKLTNYSVTDLNVQRKAIHELIQVMAELSPAAKTGKRKRSQMLFRG",inhibition of T cell proliferation by hAECs,[7],increased
same,IDO expression,[8],increases dramatically
same,PD-L1 expression,[8],dramatic increase in expression
same,HLA-G expression,[8]; after moving cells to standard media (DMEM:F12),greatly increased
